Test results reported in US20030021763A1, “Method for the treatment and/or prophylaxis of diseases caused by IL-12” (Gruenenthal GmbH., priority 1999, published 2003).
“And” between values parts separate entries of the source, which are not always exact repeats. Equal values may be shown once.

Tested on: IL-12 production of LPS-activated monocytes
Experiment: Stimulation of human monocytes with lipopolysaccharide to secrete IL-12 (IL-12 sandwich ELISA of culture supernatants)
Type: cell-based
Conditions: for inhibition at 0.05 µg/mL / inhibition at 0.5 µg/mL / inhibition at 5 µg/mL: Homo sapiens, Monocyte, read-out: % inhibition of the IL-12 production of the control without inhibitors; for inhibition at 0.05 µg/mL / inhibition at 0.5 µg/mL / inhibition at 5 µg/mL / % inhibition of the IL-12 production of the control without inhibitors / IL-12 production: LPS 20 μg/ml, 24 hours; for action on the IL-12 production of LPS-stimulated monocytes: Tables 2 to 4
Method: Stimulation of Human Monocytes with Lipopolysaccharide to Secrete IL-12
Human monocytes were isolated from peripheral blood mononuclear cells (PBMC) which had been obtained from heparinized full blood by a Ficoll density gradient centrifugation. To that end, the PBMC were incubated with a monoclonal antibody directed against the monocyte-specific surface molecule CD14 and to which superparamagnetic microbeads (Miltenyi Biotech, Bergisch Gladbach) were coupled. For the positive selection of the labelled monocytes from the PBMC cell mixture, the total cell suspension was applied to a column having a ferromagnetic carrier matrix, and the column was placed in a magnetic field. The cells charged with microbeads were thus bonded to the carrier matrix, while unlabelled cells passed through the column and were discarded. After removing the matrix from the magnetic field, the antibody-charged cells were eluted by flushing the now demagnetised column with buffer. The purity of the resulting CD14-positive monocyte population was approximately from 95 to 98%. The monocytes were incubated for one hour at 37° C. and 5% CO2 in a density of 10^6cells/ml culture medium (RPMI, supplemented with 10% foetal calf serum) with the test substances dissolved in DMSO. 20 μg/ml of LPS from E. coli were then added. After 24 hours, cell-free culture supernatants were collected and tested for their IL-12 content.
The concentration of IL-12 in the cell culture supernatants was determined by sandwich ELISA's using two anti-IL-12 monoclonal antibodies (Biosource Europe, Fleurus, Belgium). A reference standard curve with human IL-12 was included. The detection limit of the IL-12 ELISA was 10 pg/ml.

[1] = test substance 0.05 μg/ml, IL-10 0 pg/ml
[2] = test substance 0.5 μg/ml, IL-10 0 pg/ml
[3] = test substance 5 μg/ml, IL-10 0 pg/ml
[4] = test substance 0.05 μg/ml combined with IL-10 5 pg/ml
[5] = test substance 0.05 μg/ml combined with IL-10 50 pg/ml
[6] = test substance 0.5 μg/ml combined with IL-10 5 pg/ml
[7] = test substance 0.5 μg/ml combined with IL-10 50 pg/ml
[8] = test substance 5 μg/ml combined with IL-10 5 pg/ml
[9] = test substance 5 μg/ml combined with IL-10 50 pg/ml
[10] = test substance 0.005 μg/ml combined with IL-10 5 pg/ml
[11] = test substance 0.005 μg/ml combined with IL-10 50 pg/ml
[12] = test substance 0.005 μg/ml, IL-10 0 pg/ml

Row | Compound | inhibition at 0.05 µg/mL [1] [%] | inhibition at 0.5 µg/mL [2] [%] | inhibition at 5 µg/mL [3] [%] | action on the IL-12 production of LPS-stimulated monocytes | % inhibition of the IL-12 production of the control without inhibitors [4] [%] | IL-12 production [4] [pg/mL] | % inhibition of the IL-12 production of the control without inhibitors [5] [%] | IL-12 production [5] [pg/mL] | IL-12 production [1] [pg/mL] | % inhibition of the IL-12 production of the control without inhibitors [6] [%] | IL-12 production [6] [pg/mL] | % inhibition of the IL-12 production of the control without inhibitors [7] [%] | IL-12 production [7] [pg/mL] | IL-12 production [2] [pg/mL] | % inhibition of the IL-12 production of the control without inhibitors [8] [%] | IL-12 production [8] [pg/mL] | % inhibition of the IL-12 production of the control without inhibitors [9] [%] | IL-12 production [9] [pg/mL] | IL-12 production [3] [pg/mL] | other results
1 | O=C1CCC(N2Cc3ccccc3C2=O)C(=O)N1 (centres unmarked) [EM 12, 3-(1-oxo-1,3-dihydro-isoindol-2-yl)-piperidine-2,6-dione] | 47 | 68 | 66 | dose-dependent inhibitory action | 55 | 2944 | 91 | 589 | 3478 | 78 | 1462 | 90 | 649 | 2098 | 81 | 1271 | 92 | 546 | 2220 | 
2 | CC1(N2C(=O)c3ccccc3C2=O)CCC(=O)NC1=O (stereo not drawn) [EM 978, α-methyl thalidomide] |  |  |  | dose-dependent inhibitory action | 61 | 1897 | 68 | 1555 | 3161 | 94 | 272 | 96 | 191 | 439 |  |  |  |  |  | % inhibition of the IL-12 production of the control without inhibitors [10]: 40%; IL-12 production [10]: 2922 pg/mL; % inhibition of the IL-12 production of the control without inhibitors [11]: 53%; IL-12 production [11]: 2302 pg/mL; % inhibition of the IL-12 production of the control without inhibitors [12]: 7%; IL-12 production [12]: 4571 pg/mL; % inhibition of the IL-12 production of the control without inhibitors [1]: 35%; % inhibition of the IL-12 production of the control without inhibitors [2]: 91%; concentration lower than in the case of thalidomide or EM 12 to achieve the same effects (versus thalidomide or EM 12): 10 times lower
3 | O=C1CCC(N2C(=O)c3ccccc3C2=O)C(=O)N1 (centres unmarked) [Thalidomide, 2-(2,6-dioxo-piperidin-3-yl)-isoindole-1,3-dione, reference compound] | 45 | 67 | 76 | dose-dependent inhibitory action | 68 | 1958 | 87 | 809 | 3369 | 81 | 1147 | 90 | 618 | 2037 | 83 | 1057 | 93 | 447 | 1481 | 
4 | IL-10: anti-inflammatory cytokine originally described as cytokine synthesis inhibitory factor |  |  |  | dose-dependent inhibitory action |  |  |  |  |  |  |  |  |  |  |  |  |  |  |  | EC50: 0.05 ng/mL; IL-12 production (IL-10 5 pg/ml alone (thalidomide compound 0 μg/ml)): 5637 pg/mL and 4393 pg/mL and 4581 pg/mL; % inhibition of the IL-12 production of the control without inhibitors (IL-10 50 pg/ml alone (thalidomide compound 0 μg/ml)): 58% and 47% and 81%
